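Five concentrations, 48 hours, 96-well plates. TGI: total growth inhibition.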
How the values were obtained:
Experiment in all cases: NCI tumour cell line growth inhibition, 48 h
BT-549 breast = system: BT-549 breast
OVCAR-3 ovarian = system: OVCAR-3 ovarian
SNB-19 CNS = system: SNB-19 CNS
IGROV1 ovarian = system: IGROV1 ovarian
HL-60(TB) leukemia = system: HL-60(TB) leukemia
OVCAR-4 ovarian = system: OVCAR-4 ovarian
TK-10 renal = system: TK-10 renal
786-0 renal = system: 786-0 renal
CAKI-1 renal = system: CAKI-1 renal
HOP-62 NSCLC = system: HOP-62 NSCLC
A549 NSCLC = system: A549 NSCLC
NCI-H460 lung = system: NCI-H460 lung
HOP-92 NSCLC = system: HOP-92 NSCLC
MCF7 breast = system: MCF7 breast
U251 CNS = system: U251 CNS
PC-3 prostate = system: PC-3 prostate
HCT-116 colon = system: HCT-116 colon
RXF 393 renal = system: RXF 393 renal
SK-MEL-28 melanoma = system: SK-MEL-28 melanoma
MDA-MB-231 breast = system: MDA-MB-231 breast
K-562 leukemia = system: K-562 leukemia
SK-OV-3 ovarian = system: SK-OV-3 ovarian
SW-620 colon = system: SW-620 colon
NCI-H226 lung = system: NCI-H226 lung
SF-295 CNS = system: SF-295 CNS
SR leukemia = system: SR leukemia
DU-145 prostate = system: DU-145 prostate
MOLT-4 leukemia = system: MOLT-4 leukemia
HT29 colon = system: HT29 colon
EKVX NSCLC = system: EKVX NSCLC
SF-539 CNS = system: SF-539 CNS
CCRF-CEM leukemia = system: CCRF-CEM leukemia
UACC-257 melanoma = system: UACC-257 melanoma
SNB-75 CNS = system: SNB-75 CNS
NCI-H23 lung = system: NCI-H23 lung
RPMI-8226 leukemia = system: RPMI-8226 leukemia
A498 renal = system: A498 renal
NCI-H522 lung = system: NCI-H522 lung
SK-MEL-5 melanoma = system: SK-MEL-5 melanoma
LOX IMVI melanoma = system: LOX IMVI melanoma
MDA-MB-435 = system: MDA-MB-435
UACC-62 melanoma = system: UACC-62 melanoma
SK-MEL-2 melanoma = system: SK-MEL-2 melanoma
KM12 colon = system: KM12 colon
HS 578T breast = system: HS 578T breast
SF-268 CNS = system: SF-268 CNS
OVCAR-5 ovarian = system: OVCAR-5 ovarian
COLO 205 colon = system: COLO 205 colon
T-47D breast = system: T-47D breast
SN12C renal = system: SN12C renal
MALME-3M melanoma = system: MALME-3M melanoma
M14 melanoma = system: M14 melanoma
NCI/ADR-RES ovarian = system: NCI/ADR-RES ovarian
HCC-2998 colon = system: HCC-2998 colon
ACHN renal = system: ACHN renal
MDA-N = system: MDA-N
OVCAR-8 ovarian = system: OVCAR-8 ovarian
HCT-15 colon = system: HCT-15 colon
UO-31 renal = system: UO-31 renal

CCC(CCCC[C@H]1CC[C@@H]2CC(=O)C[C@H]12)OC (some centres not stated)
TGI (BT-549 breast): > 100 µM | TGI (OVCAR-3 ovarian): > 100 µM | TGI (SNB-19 CNS): > 100 µM | TGI (IGROV1 ovarian): > 100 µM | TGI (HL-60(TB) leukemia): > 100 µM | TGI (OVCAR-4 ovarian): > 100 µM | TGI (TK-10 renal): > 100 µM | TGI (786-0 renal): > 100 µM | TGI (CAKI-1 renal): > 100 µM | TGI (HOP-62 NSCLC): > 100 µM | TGI (A549 NSCLC): > 100 µM | TGI (NCI-H460 lung): > 100 µM | TGI (HOP-92 NSCLC): > 100 µM | TGI (MCF7 breast): > 100 µM | TGI (U251 CNS): > 100 µM | TGI (PC-3 prostate): > 100 µM | TGI (HCT-116 colon): > 100 µM | TGI (RXF 393 renal): > 100 µM | TGI (SK-MEL-28 melanoma): > 100 µM | TGI (MDA-MB-231 breast): > 100 µM | TGI (K-562 leukemia): > 100 µM | TGI (SK-OV-3 ovarian): > 100 µM | TGI (SW-620 colon): > 100 µM | TGI (NCI-H226 lung): > 100 µM | TGI (SF-295 CNS): > 100 µM | TGI (SR leukemia): > 100 µM | TGI (DU-145 prostate): > 100 µM | TGI (MOLT-4 leukemia): > 100 µM | TGI (HT29 colon): > 100 µM | TGI (EKVX NSCLC): > 100 µM | TGI (SF-539 CNS): > 100 µM | TGI (CCRF-CEM leukemia): > 100 µM | TGI (UACC-257 melanoma): > 100 µM | TGI (SNB-75 CNS): > 100 µM | TGI (NCI-H23 lung): > 100 µM | TGI (RPMI-8226 leukemia): > 100 µM | TGI (A498 renal): > 100 µM | TGI (NCI-H522 lung): > 100 µM | TGI (SK-MEL-5 melanoma): > 100 µM | TGI (LOX IMVI melanoma): > 100 µM | TGI (MDA-MB-435): > 100 µM | TGI (UACC-62 melanoma): > 100 µM | TGI (SK-MEL-2 melanoma): > 100 µM | TGI (KM12 colon): > 100 µM | TGI (HS 578T breast): > 100 µM | TGI (SF-268 CNS): > 100 µM | TGI (OVCAR-5 ovarian): > 100 µM | TGI (COLO 205 colon): > 100 µM | TGI (T-47D breast): > 100 µM | TGI (SN12C renal): > 100 µM | TGI (MALME-3M melanoma): > 100 µM | TGI (M14 melanoma): > 100 µM | TGI (NCI/ADR-RES ovarian): > 100 µM | TGI (HCC-2998 colon): > 100 µM | TGI (ACHN renal): > 100 µM | TGI (MDA-N): > 100 µM | TGI (OVCAR-8 ovarian): > 100 µM | TGI (HCT-15 colon): > 100 µM

CCOC(=O)c1cccc(N=NNc2cccc(C(=O)OCC)c2)c1
TGI (BT-549 breast): > 100 µM | TGI (OVCAR-3 ovarian): 93.9 µM | TGI (SNB-19 CNS): 46.2 µM | TGI (IGROV1 ovarian): > 100 µM | TGI (HL-60(TB) leukemia): > 100 µM | TGI (OVCAR-4 ovarian): 63 µM | TGI (TK-10 renal): > 100 µM | TGI (786-0 renal): 42.6 µM | TGI (CAKI-1 renal): > 100 µM | TGI (HOP-62 NSCLC): 32.4 µM | TGI (A549 NSCLC): > 100 µM | TGI (NCI-H460 lung): > 100 µM | TGI (HOP-92 NSCLC): 46.8 µM | TGI (MCF7 breast): > 100 µM | TGI (U251 CNS): 46.6 µM | TGI (PC-3 prostate): > 100 µM | TGI (HCT-116 colon): > 100 µM | TGI (RXF 393 renal): 62.9 µM | TGI (SK-MEL-28 melanoma): > 100 µM | TGI (MDA-MB-231 breast): 53.3 µM | TGI (K-562 leukemia): > 100 µM | TGI (SK-OV-3 ovarian): 93.4 µM | TGI (SW-620 colon): > 100 µM | TGI (UO-31 renal): 45.6 µM | TGI (NCI-H226 lung): > 100 µM | TGI (SF-295 CNS): 45.4 µM | TGI (SR leukemia): > 100 µM | TGI (DU-145 prostate): > 100 µM | TGI (MOLT-4 leukemia): > 100 µM | TGI (HT29 colon): > 100 µM | TGI (EKVX NSCLC): > 100 µM | TGI (SF-539 CNS): 36.6 µM | TGI (CCRF-CEM leukemia): > 100 µM | TGI (UACC-257 melanoma): > 100 µM | TGI (SNB-75 CNS): 36.9 µM | TGI (NCI-H23 lung): > 100 µM | TGI (RPMI-8226 leukemia): > 100 µM | TGI (A498 renal): 86.1 µM | TGI (NCI-H522 lung): 84.3 µM | TGI (SK-MEL-5 melanoma): > 100 µM | TGI (LOX IMVI melanoma): > 100 µM | TGI (MDA-MB-435): > 100 µM | TGI (UACC-62 melanoma): > 100 µM | TGI (SK-MEL-2 melanoma): > 100 µM | TGI (KM12 colon): > 100 µM | TGI (HS 578T breast): 77.3 µM | TGI (SF-268 CNS): 80.8 µM | TGI (OVCAR-5 ovarian): > 100 µM | TGI (COLO 205 colon): > 100 µM | TGI (T-47D breast): > 100 µM | TGI (SN12C renal): 73.5 µM | TGI (MALME-3M melanoma): > 100 µM | TGI (M14 melanoma): > 100 µM | TGI (NCI/ADR-RES ovarian): > 100 µM | TGI (HCC-2998 colon): > 100 µM | TGI (ACHN renal): > 100 µM | TGI (MDA-N): > 100 µM | TGI (OVCAR-8 ovarian): 91.8 µM | TGI (HCT-15 colon): > 100 µM
